Test results from ChEMBL document CHEMBL3045819, “Potent limonoid insect antifeedant from Melia azedarach” (2002).

How the values were obtained:
Type in all cases: functional
Spodoptera eridania [1] = experiment: Antifeedant activity against larvae of Spodoptera eridania in Cucurbita maxima leaves at 4 ug/cm2 after 24 hr by leaf disk choice test
Epilachna [2] = experiment: Antifeedant activity against larvae of Epilachna paenulata in Cucurbita maxima leaves at 4 ug/cm2 after 24 hr by leaf disc choice test
Spodoptera eridania [3] = experiment: Antifeedant activity against larvae of Spodoptera eridania in Cucurbita maxima leaves at 10 ug/cm2 after 24 hr by leaf disk choice test
Spodoptera eridania [4] = experiment: Antifeedant activity against larvae of Spodoptera eridania in Cucurbita maxima leaves at 1 ug/cm2 after 24 hr by leaf disk choice test
Spodoptera eridania [5] = experiment: Antifeedant activity against larvae of Spodoptera eridania in Cucurbita maxima leaves at 14 ug/cm2 after 24 hr by leaf disk choice test
Spodoptera eridania [6] = experiment: Antifeedant activity against larvae of Spodoptera eridania in Cucurbita maxima leaves at 0.25 ug/cm2 after 24 hr by leaf disk choice test
Epilachna [7] = experiment: Antifeedant activity against larvae of Epilachna paenulata in Cucurbita maxima leaves at 10 ug/cm2 after 24 hr by leaf disc choice test
Spodoptera eridania [8] = experiment: Antifeedant activity against larvae of Spodoptera eridania in Cucurbita maxima leaves at 0.5 ug/cm2 after 24 hr by leaf disk choice test
Epilachna [9] = experiment: Antifeedant activity against larvae of Epilachna paenulata in Cucurbita maxima leaves at 8 ug/cm2 after 24 hr by leaf disc choice test
Epilachna [10] = experiment: Antifeedant activity against larvae of Epilachna paenulata in Cucurbita maxima leaves at 1 ug/cm2 after 24 hr by leaf disc choice test
Epilachna [11] = experiment: Antifeedant activity against larvae of Epilachna paenulata in Cucurbita maxima leaves at 0.5 ug/cm2 after 24 hr by leaf disc choice test

SMILES | AFI (Spodoptera eridania [1]) [%] | AFI (Epilachna [2]) [%] | AFI (Spodoptera eridania [3]) [%] | AFI (Spodoptera eridania [4]) [%] | AFI (Spodoptera eridania [5]) [%] | AFI (Spodoptera eridania [6]) [%] | AFI (Epilachna [7]) [%] | AFI (Spodoptera eridania [8]) [%] | AFI (Epilachna [9]) [%] | AFI (Epilachna [10]) [%] | AFI (Epilachna [11]) [%]
CC(=O)O[C@@H]1C[C@H](O)[C@@]23CO[C@@H](O)[C@]1(C)[C@@H]2C[C@@H](O)[C@]1(C)[C@@H]3C(=O)[C@H](OC(C)=O)[C@@]2(C)[C@H](c3ccoc3)C[C@H]3O[C@]321 [TOOSENDANIN] | 71.8 | 54.8 | 79.3 | 65.1 | 87.8 | 45.8 | 90.7 | 58.7 | 78.2 | – | –
C/C=C(\C)C(=O)O[C@H]1C[C@@H](OC(C)=O)[C@@]2(C(=O)OC)CO[C@H]3[C@@H](O)[C@@](C)([C@]45O[C@@]4(C)[C@@H]4C[C@H]5O[C@@H]5OC=C[C@@]54O)[C@H]4[C@]1(CO[C@]4(O)C(=O)OC)[C@@H]32 [AZADIRACHTIN A] | 94 | 97.6 | – | 94.2 | – | 57.3 | – | 91.2 | – | 62.2 | 35.7
CC(=O)O[C@@H]1C[C@H](O)[C@@]23CO[C@H](O)[C@]1(C)[C@@H]2C[C@@H](O)[C@]1(C)[C@@H]3C(=O)[C@H](O)[C@@]2(C)[C@H](c3ccoc3)C[C@H]3O[C@@]321 [12-HYDROXYAMOORASTATIN] | 95.5 | 96.1 | – | 91.2 | – | 35.5 | – | 57.5 | – | 52.1 | 36.4
